Where a name gives a salt, the structure may show the parent alone. Marks after values point to notes of the source that are not given here.
System: bFGF-induced angiogenesis
Experiment: rat cornea micropocket method (angiogenesis inhibitory activity)
Type: in vivo, Sprague-Dawley rats
Conditions: rats with angiogenesis inhibitory activity / rats tested, sample pellet 20 »g
Method: The product compound (I) obtained in the examples given below were evaluated for angiogenesis inhibitory activity by the rat cornea micropocket method.
Essentially the method of Gimbrone et al. [J. National Cancer Institute, 52, 413-419 (1974)] was followed. Thus, adult male Sprague-Dawley rats (11 to 16 weeks of age) were anesthetized with nembutal and locally anesthetized by instillation of xylocaine eyedrops onto the eyeball. The cornea was incised to a length of about 2 mm at about 2mm inside from the corneal circumference by means of an injection needle, and a sustained release pellet containing basic fibroblast growth factor (bFGF; bovine brain-derived, purified product; R & D) and a sustained release pellet containing the test sample were inserted side by side into the incision so that the bFGF pellet was located on the central side in the cornea. In the control group, the bFGF pellet and a sample-free pellet were inserted into the cornea. After 7 days and after 10 days, the cornea was observed under a stereoscopic microscope.
The sustained release pellets were prepared in the following manner. An ethylene-vinyl acetate copolymer (Takeda Chemical Industries) was dissolved in dichloromethane to a concentration of 8%. A 3-»l portion of the solution was air-dried on a glass dish, an aqueous solution of bFGF (250 ng) was then placed thereon and air-dried and, finally 3 »l of the above ethylene-vinyl acetate copolymer solution was placed further thereon and air-dried to give a laminate consisting of two copolymer layers and a bFGF layer sandwiched therebetween. This sandwich sheet was made round into a bFGF pellet. The test sample pellets were prepared by dissolving each sample in ethanol in a concentration of 20 »g/2 »l, mixing the solution (2 »l) with 6 »l of an ethylene-vinyl acetate copolymer solution, air-drying the mixed solution on a glass dish and making the thus-obtained sheet round.

Row | Compound | Inhibition rate (judged after 10 days) | Inhibition rate (judged after 7 days)
1 | CO[C@@H]1[C@H](OC(=O)CCC(=O)O)CC[C@]2(CO2)[C@H]1[C@@]1(C)O[C@@H]1CC=C(C)C [Example 2, Sodium salt of O-(3-carboxypropionyl)fumagillol] | 6/6 | –
2 | CO[C@@H]1[C@H](OC(=O)CCCC(=O)O)CC[C@]2(CO2)[C@H]1[C@@]1(C)O[C@@H]1CC=C(C)C [Example 4, Sodium salt of O-(4-carboxybutanoyl)fumagillol] | 6/7 | –
3 | CO[C@@H]1[C@H](OC(=O)COCC(=O)O)CC[C@]2(CO2)[C@H]1[C@@]1(C)O[C@@H]1CC=C(C)C [Example 5, O-Carboxymethoxyacetylfumagillol] | – | 8/8*
4 | CO[C@@H]1[C@H](OC(=O)c2ccccc2C(=O)O)CC[C@]2(CO2)[C@H]1[C@@]1(C)O[C@@H]1CC=C(C)C [Example 6, O-(2-Carboxybenzoyl)fumagillol] | 6/7 | –
5 | CO[C@@H]1[C@H](OC(=O)Nc2ccccc2)CC[C@]2(CO2)[C@H]1[C@@]1(C)O[C@@H]1CC=C(C)C [Example 11, O-Phenylcarbamoylfumagillol] | – | 9/9*
6 | CO[C@@H]1[C@H](OC)CC[C@]2(CO2)[C@H]1[C@@]1(C)O[C@@H]1CC=C(C)C [Example 14, O-Methylfumagillol] | 4/8 | –
7 | CO[C@@H]1[C@H](OCc2ccccc2)CC[C@]2(CO2)[C@H]1[C@@]1(C)O[C@@H]1CC=C(C)C [Example 17, O-Benzylfumagillol] | – | 7/8*
8 | CO[C@@H]1[C@H](OCc2ccc(Br)cc2)CC[C@]2(CO2)[C@H]1[C@@]1(C)O[C@@H]1CC=C(C)C [Example 18, O-(p-Bromobenzyl)fumagillol] | 7/7 | –
9 | CO[C@@H]1[C@H](OS(=O)(=O)c2ccc(C)cc2)CC[C@]2(CO2)[C@H]1[C@@]1(C)O[C@@H]1CC=C(C)C [Example 20, O-(p-Toluenesulfonyl)fumagillol] | 3/4 | –
10 | CO[C@@H]1[C@H](OS(C)(=O)=O)CC[C@]2(CO2)[C@H]1[C@@]1(C)O[C@@H]1CC=C(C)C [Example 21, O-Methylsulfonylfumagillol] | 4/4 | –
11 | CO[C@@H]1[C@H](OC(=O)Oc2ccccc2)CC[C@]2(CO2)[C@H]1[C@@]1(C)O[C@@H]1CC=C(C)C [Example 22, O-Phenoxycarbonylfumagillol] | 5/8 | –
12 | CO[C@@H]1[C@H](OC(N)=O)CC[C@]2(CO2)[C@H]1[C@@]1(C)O[C@@H]1CC=C(C)C [Example 23, O-Carbamoylfumagillol] | 6/8 | –
13 | CO[C@@H]1[C@H](OC(=O)N2CCOCC2)CC[C@]2(CO2)[C@H]1[C@@]1(C)O[C@@H]1CC=C(C)C [Example 24, O-Morpholinocarbonylfumagillol] | 5/12 | –
14 | CO[C@@H]1[C@H](OC(=O)N2CCCCC2)CC[C@]2(CO2)[C@H]1[C@@]1(C)O[C@@H]1CC=C(C)C [Example 25, O-Piperidinocarbonylfumagillol] | 6/8 | –
15 | CO[C@@H]1[C@H](OC(=O)NN)CC[C@]2(CO2)[C@H]1[C@@]1(C)O[C@@H]1CC=C(C)C [Example 26, O-Carbazoylfumagillol] | 6/6 | –
16 | CO[C@@H]1[C@H](OC(=O)n2ccnc2)CC[C@]2(CO2)[C@H]1[C@@]1(C)O[C@@H]1CC=C(C)C [Example 27, O-(1-Imidazolylcarbonyl)fumagillol] | 3/7 | –
17 | CO[C@@H]1[C@H](OC(=O)NCCN(C)C)CC[C@]2(CO2)[C@H]1[C@@]1(C)O[C@@H]1CC=C(C)C [Example 28, O-(2-Dimethylaminoethylcarbamoyl)fumagillol] | 11/11 | –
18 | CO[C@@H]1[C@H](OC(=O)NC(C)=O)CC[C@]2(CO2)[C@H]1[C@@]1(C)O[C@@H]1CC=C(C)C [Example 29, O-Acetylcarbamoylfumagillol] | 7/7 | –
19 | CO[C@@H]1[C@H](OC(=O)NC(=O)C(Cl)Cl)CC[C@]2(CO2)[C@H]1[C@@]1(C)O[C@@H]1CC=C(C)C [Example 30, O-Dichloroacetylcarbamoylfumagillol] | 4/8 | –
20 | CO[C@@H]1[C@H](OC(=O)NC(=O)C(Cl)(Cl)Cl)CC[C@]2(CO2)[C@H]1[C@@]1(C)O[C@@H]1CC=C(C)C [Example 31, O-Trichloroacetylcarbamoylfumagillol] | 5/6 | –

Row | Compound | Inhibition rate (judged after 10 days) | Inhibition rate (judged after 7 days)
21 | CO[C@@H]1[C@H](OC(=O)NC(=O)c2ccccc2)CC[C@]2(CO2)[C@H]1[C@@]1(C)O[C@@H]1CC=C(C)C [Example 32, O-Benzoylcarbamoylfumagillol] | 9/12 | –
22 | C=C(C)C(=O)NC(=O)O[C@@H]1CC[C@]2(CO2)[C@@H]([C@@]2(C)O[C@@H]2CC=C(C)C)[C@@H]1OC [Example 33, O-Methacryloylcarbamoylfumagillol] | 4/6 | –
23 | CO[C@@H]1[C@H](OC(=O)NCCCl)CC[C@]2(CO2)[C@H]1[C@@]1(C)O[C@@H]1CC=C(C)C [Example 34, O-(2-Chloroethylcarbamoyl)fumagillol] | 4/4 | –
24 | CO[C@@H]1[C@H](OC(=O)Nc2ccc(Cl)cc2)CC[C@]2(CO2)[C@H]1[C@@]1(C)O[C@@H]1CC=C(C)C [Example 35, O-(p-Chlorophenylcarbamoyl)fumagillol] | 4/8 | –
25 | CO[C@@H]1[C@H](OC(=O)Nc2ccc(F)cc2F)CC[C@]2(CO2)[C@H]1[C@@]1(C)O[C@@H]1CC=C(C)C [Example 37, O-(2,4-Difluorophenylcarbamoyl)fumagillol] | 11/11 | –
26 | CO[C@@H]1[C@H](OC(=O)NS(=O)(=O)c2ccc(C)cc2)CC[C@]2(CO2)[C@H]1[C@@]1(C)O[C@@H]1CC=C(C)C [Example 38, O-(p-Toluenesulfonylcarbamoyl)fumagillol] | 13/15 | –
27 | CCN1CCN(C(=O)O[C@@H]2CC[C@]3(CO3)[C@@H]([C@@]3(C)O[C@@H]3CC=C(C)C)[C@@H]2OC)CC1 [Example 39, O-[1-(4-Ethylpiperazinyl)carbonyl]fumagillol] | 8/8 | –
28 | CO[C@@H]1[C@H](OC(=O)NC(=O)COC(C)=O)CC[C@]2(CO2)[C@H]1[C@@]1(C)O[C@@H]1CC=C(C)C [Example 40, O-Acetoxyacetylcarbamoylfumagillol] | 6/6 | –
29 | CO[C@@H]1[C@H](OC(=O)NC(=O)CSC(C)=O)CC[C@]2(CO2)[C@H]1[C@@]1(C)O[C@@H]1CC=C(C)C [Example 41, O-Acetylthioacetylcarbamoylfumagillol] | 2/4 | –
30 | CO[C@@H]1[C@H](OC(=O)NC(=O)CSc2nc3ccccc3s2)CC[C@]2(CO2)[C@H]1[C@@]1(C)O[C@@H]1CC=C(C)C [Example 42, O-(2-Benzothiazolylthioacetylcarbamoyl)fumagillol] | 7/7 | –
31 | CO[C@@H]1[C@H](OC(=O)NC(=O)CSc2cccc[n+]2[O-])CC[C@]2(CO2)[C@H]1[C@@]1(C)O[C@@H]1CC=C(C)C [Example 43, O-[(Pyridine-N-oxide-2-yl)thioacetylcarbamoyl]fumagillol] | 7/7 | –
32 | CCN(CC)CC(=O)NC(=O)O[C@@H]1CC[C@]2(CO2)[C@@H]([C@@]2(C)O[C@@H]2CC=C(C)C)[C@@H]1OC [Example 44, O-Diethylaminoacetylcarbamoylfumagillol] | 7/7 | –
33 | CO[C@@H]1[C@H](OC(c2ccccc2)c2ccccc2)CC[C@]2(CO2)[C@H]1[C@@]1(C)O[C@@H]1CC=C(C)C [Example 45, O-Diphenylmethylfumagillol] | 8/13 | –
34 | CO[C@@H]1[C@H](OCc2cccc3ccccc23)CC[C@]2(CO2)[C@H]1[C@@]1(C)O[C@@H]1CC=C(C)C [Example 46, O-(1-Naphthylmethyl)fumagillol] | 7/10 | –
35 | CO[C@@H]1[C@H](OC(=O)CCCCl)CC[C@]2(CO2)[C@H]1[C@@]1(C)O[C@@H]1CC=C(C)C [Example 49, O-(4-Chlorobutyryl)fumagillol] | 4/5 | –
36 | CO[C@@H]1[C@H](OC(=O)NC(=O)CSc2nnnn2CCN(C)C)CC[C@]2(CO2)[C@H]1[C@@]1(C)O[C@@H]1CC=C(C)C [Example 52, O-[[1-(2-Dimethylaminoethyl)tetrazol]-5-yl-thioacetylcarbamoyl]fumagillol] | 6/8 | –
37 | CO[C@@H]1[C@H](OC(=O)NC(=O)CSc2nnc(C)s2)CC[C@]2(CO2)[C@H]1[C@@]1(C)O[C@@H]1CC=C(C)C [Example 53, O-[(2-methyl-1,3,4-thiadiazol-5-yl)thioacetylcarbamoyl]fumagillol] | 8/8 | –
38 | CO[C@@H]1[C@H](OC(=O)NC(=O)CSc2cccc3ccccc23)CC[C@]2(CO2)[C@H]1[C@@]1(C)O[C@@H]1CC=C(C)C [Example 54, O-(1-Naphthalenethioacetylcarbamoyl)fumagillol] | 5/5 | –
39 | CO[C@@H]1[C@H](OC(=O)NCC[N+](C)(C)C)CC[C@]2(CO2)[C@H]1[C@@]1(C)O[C@@H]1CC=C(C)C [Example 56, O-[2-(N,N,N-Trimethylammonio)ethylcarbamoyl]fumagillol iodide] | 4/7 | –
40 | CO[C@@H]1[C@H](OC(=O)N(CCN(C)C)C(C)=O)CC[C@]2(CO2)[C@H]1[C@@]1(C)O[C@@H]1CC=C(C)C [Example 57, O-[N-Acetyl-(2-dimethylaminoethylcarbamoyl)]fumagillol] | 6/6 | –
